Source: patent US8389523B2, “Substituted quinoxaline and an agrochemical composition thereof” (Kumiai Chemical Industry Co., Ltd., priority 2007, dated 2013)

Columns and labels:
Type in all cases: in vivo
Set-up in all cases: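 grade 0 to 5 of growth suppression where 5 is 90% or more and 0 below 10%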
[1] = tested on: Abutilon theophrasti medicus; assay: Herbicidal effects in upland field soil treatment (Test Example 2); details: 1000 g active ingredient per hectare, 21st day after treatment, criteria of Table 138
Outline: (§1)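 Seeds sown in upland soil and covered; surface sprayed with water-diluted wettable powder, 1000 g a.i./ha, spray volume 1000 L/ha. Greenhouse growth, visual herbicidal rating at day 21.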

Amaranthus viridis L. [2] = assay: as above; details: 1000 g active ingredient per hectare, 21st day after treatment, criteria of Table 138
Outline: as §1

[3] = tested on: Echinochloa crus-galli (L.) P. Beauv. var. crus-galli; assay: Herbicidal effects in upland field foliar treatment (Test Example 3); details: criteria of Table 138; for herbicidal effects on Echinochloa crus-galli (L.) P. Beauv. var. crus-galli: 1000 g of the active ingredient per hectare, 14th day after the treatment, wettable powder; for herbicidal effect (index) on Echinochloa crus-galli (L.) P. Beauv. var. crus-galli: 1000 g active ingredient per hectare, 14th day after treatment
Outline: (§2)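 Greenhouse pot test, upland soil; 2-wk-old plants sprayed from above with water-diluted wettable powder (1000 L/ha spray volume, 1000 g a.i./ha). Regrown in greenhouse; visual herbicidal score on day 14 post-treatment.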

[4] = tested on: Abutilon theophrasti medicus; assay: as above; details: criteria of Table 138; for herbicidal effects on Abutilon theophrasti medicus: 1000 g of the active ingredient per hectare, 14th day after the treatment, wettable powder; for herbicidal effect (index) on Abutilon theophrasti medicus: 1000 g active ingredient per hectare, 14th day after treatment
Outline: as §2

Amaranthus viridis L. [5] = assay: as above; details: criteria of Table 138; for herbicidal effects on Amaranthus viridis L.: 1000 g of the active ingredient per hectare, 14th day after the treatment, wettable powder; for herbicidal effect (index) on Amaranthus viridis L.: 1000 g active ingredient per hectare, 14th day after treatment
Outline: as §2

[6] = tested on: Scirpus juncoides Roxb. var. ohwianus. T. Koyama; assay: Herbicidal effects in paddy field soil treatment (Test Example 1); details: paddy field soil treatment; 1000 g of the active ingredient per hectare; wettable powder added dropwise on water surface; 21st day after treatment
Outline: (§3)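 Paddy soil pre-emergence test: seeds sown, flooded 3 cm; next day wettable powder in water applied dropwise to water surface, 1000 g a.i./ha; greenhouse; effect rated visually on scale at 21 d post-treatment.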

[7] = tested on: Monochoria vaginalis (Burm. f.) Presl var. plantaginea (Roxb.) Solms-Laub.; assay: as above; details: paddy field soil treatment; 1000 g of the active ingredient per hectare; wettable powder added dropwise on water surface; 21st day after treatment
Outline: as §3

[8] = tested on: Echinochloa oryzicola Vasing; assay: as above; details: paddy field soil treatment; 1000 g of the active ingredient per hectare; wettable powder added dropwise on water surface; 21st day after treatment
Outline: as §3

O=C1CCCC(O)=C1C(=O)c1nc2ccc(F)cc2n(-c2ccc3c(c2)OCCO3)c1=O [II-242]
herbicidal effect (index) on Abutilon theophrasti medicus [1]: 4
herbicidal effect (index) on Amaranthus viridis L. (Amaranthus viridis L. [2]): 5
herbicidal effects on Echinochloa crus-galli (L.) P. Beauv. var. crus-galli [3]: 5
herbicidal effects on Abutilon theophrasti medicus [4]: 4
herbicidal effects on Amaranthus viridis L. (Amaranthus viridis L. [5]): 5
Herbicidal effects index, Scirpus juncoides Roxb. var. ohwianus. T. Koyama [6]: 5
Herbicidal effects index, Monochoria vaginalis (Burm. f.) Presl var. plantaginea (Roxb.) Solms-Laub. [7]: 5
Herbicidal effects index, Echinochloa oryzicola Vasing [8]: 5

Cn1c(=O)c(C(=O)C2=C(O)CCCC2=O)nc2cc(F)ccc21 [I-220]
herbicidal effect (index) on Abutilon theophrasti medicus [1]: 5
herbicidal effect (index) on Amaranthus viridis L. (Amaranthus viridis L. [2]): 5
herbicidal effect (index) on Echinochloa crus-galli (L.) P. Beauv. var. crus-galli [3]: 5
herbicidal effect (index) on Abutilon theophrasti medicus [4]: 5
herbicidal effect (index) on Amaranthus viridis L. (Amaranthus viridis L. [5]): 5
Herbicidal effects index, Scirpus juncoides Roxb. var. ohwianus. T. Koyama [6]: 5
Herbicidal effects index, Monochoria vaginalis (Burm. f.) Presl var. plantaginea (Roxb.) Solms-Laub. [7]: 5
Herbicidal effects index, Echinochloa oryzicola Vasing [8]: 5

CCSCn1c(=O)c(C(=O)C2=C(O)CCCC2=O)nc2ccccc21 [Compound I-72]
herbicidal effect (index) on Abutilon theophrasti medicus [1]: 5
herbicidal effect (index) on Amaranthus viridis L. (Amaranthus viridis L. [2]): 5
herbicidal effect (index) on Echinochloa crus-galli (L.) P. Beauv. var. crus-galli [3]: 5
herbicidal effect (index) on Abutilon theophrasti medicus [4]: 5
herbicidal effect (index) on Amaranthus viridis L. (Amaranthus viridis L. [5]): 5
Herbicidal effects index, Scirpus juncoides Roxb. var. ohwianus. T. Koyama [6]: 5
Herbicidal effects index, Monochoria vaginalis (Burm. f.) Presl var. plantaginea (Roxb.) Solms-Laub. [7]: 5
Herbicidal effects index, Echinochloa oryzicola Vasing [8]: 5

CC1(C)C(=O)C(C(=O)c2nc3ccccc3n(-c3ccccc3)c2=O)=C(O)C(C)(C)C1=O [II-5]
herbicidal effect (index) on Abutilon theophrasti medicus [1]: 5
herbicidal effect (index) on Amaranthus viridis L. (Amaranthus viridis L. [2]): 5
herbicidal effect (index) on Echinochloa crus-galli (L.) P. Beauv. var. crus-galli [3]: 5
herbicidal effect (index) on Abutilon theophrasti medicus [4]: 5
herbicidal effect (index) on Amaranthus viridis L. (Amaranthus viridis L. [5]): 5
Herbicidal effects index, Scirpus juncoides Roxb. var. ohwianus. T. Koyama [6]: 5
Herbicidal effects index, Monochoria vaginalis (Burm. f.) Presl var. plantaginea (Roxb.) Solms-Laub. [7]: 5
Herbicidal effects index, Echinochloa oryzicola Vasing [8]: 5

CSc1ccc(-n2c(=O)c(C(=O)C3=C(O)CCCC3=O)nc3ccccc32)cc1 [II-122]
herbicidal effect (index) on Abutilon theophrasti medicus [1]: 5
herbicidal effect (index) on Amaranthus viridis L. (Amaranthus viridis L. [2]): 5
herbicidal effects on Echinochloa crus-galli (L.) P. Beauv. var. crus-galli [3]: 5
herbicidal effects on Abutilon theophrasti medicus [4]: 4
herbicidal effects on Amaranthus viridis L. (Amaranthus viridis L. [5]): 5
Herbicidal effects index, Scirpus juncoides Roxb. var. ohwianus. T. Koyama [6]: 5
Herbicidal effects index, Monochoria vaginalis (Burm. f.) Presl var. plantaginea (Roxb.) Solms-Laub. [7]: 5
Herbicidal effects index, Echinochloa oryzicola Vasing [8]: 5

CC(C)c1ccc(-n2c(=O)c(C(=O)C3=C(O)CCCC3=O)nc3cccnc32)cc1 [IV-30]
herbicidal effect (index) on Abutilon theophrasti medicus [1]: 4
herbicidal effect (index) on Amaranthus viridis L. (Amaranthus viridis L. [2]): 5
herbicidal effects on Echinochloa crus-galli (L.) P. Beauv. var. crus-galli [3]: 5
herbicidal effects on Abutilon theophrasti medicus [4]: 4
herbicidal effects on Amaranthus viridis L. (Amaranthus viridis L. [5]): 5
Herbicidal effects index, Scirpus juncoides Roxb. var. ohwianus. T. Koyama [6]: 5
Herbicidal effects index, Monochoria vaginalis (Burm. f.) Presl var. plantaginea (Roxb.) Solms-Laub. [7]: 5
Herbicidal effects index, Echinochloa oryzicola Vasing [8]: 5

O=C1CCCC(O)=C1C(=O)c1nc2cccnc2n(CCF)c1=O [III-45]
herbicidal effect (index) on Abutilon theophrasti medicus [1]: 4
herbicidal effect (index) on Amaranthus viridis L. (Amaranthus viridis L. [2]): 5
herbicidal effects on Echinochloa crus-galli (L.) P. Beauv. var. crus-galli [3]: 5
herbicidal effects on Abutilon theophrasti medicus [4]: 5
herbicidal effects on Amaranthus viridis L. (Amaranthus viridis L. [5]): 5
Herbicidal effects index, Scirpus juncoides Roxb. var. ohwianus. T. Koyama [6]: 5
Herbicidal effects index, Monochoria vaginalis (Burm. f.) Presl var. plantaginea (Roxb.) Solms-Laub. [7]: 5
Herbicidal effects index, Echinochloa oryzicola Vasing [8]: 4

CCc1cccc(-n2c(=O)c(C(=O)C3=C(O)CCCC3=O)nc3ccccc32)c1 [II-23]
herbicidal effect (index) on Abutilon theophrasti medicus [1]: 5
herbicidal effect (index) on Amaranthus viridis L. (Amaranthus viridis L. [2]): 5
herbicidal effects on Echinochloa crus-galli (L.) P. Beauv. var. crus-galli [3]: 5
herbicidal effects on Abutilon theophrasti medicus [4]: 5
herbicidal effects on Amaranthus viridis L. (Amaranthus viridis L. [5]): 5
Herbicidal effects index, Scirpus juncoides Roxb. var. ohwianus. T. Koyama [6]: 5
Herbicidal effects index, Monochoria vaginalis (Burm. f.) Presl var. plantaginea (Roxb.) Solms-Laub. [7]: 5
Herbicidal effects index, Echinochloa oryzicola Vasing [8]: 5

COc1cccc(-n2c(=O)c(C(=O)C3=C(O)CCCC3=O)nc3ccccc32)c1 [II-57]
herbicidal effect (index) on Abutilon theophrasti medicus [1]: 5
herbicidal effect (index) on Amaranthus viridis L. (Amaranthus viridis L. [2]): 5
herbicidal effects on Echinochloa crus-galli (L.) P. Beauv. var. crus-galli [3]: 5
herbicidal effects on Abutilon theophrasti medicus [4]: 5
herbicidal effects on Amaranthus viridis L. (Amaranthus viridis L. [5]): 5
Herbicidal effects index, Scirpus juncoides Roxb. var. ohwianus. T. Koyama [6]: 5
Herbicidal effects index, Monochoria vaginalis (Burm. f.) Presl var. plantaginea (Roxb.) Solms-Laub. [7]: 5
Herbicidal effects index, Echinochloa oryzicola Vasing [8]: 5

CC(C)n1c(=O)c(C(=O)C2=C(O)CCCC2=O)nc2cccnc21 [III-13]
herbicidal effect (index) on Abutilon theophrasti medicus [1]: 5
herbicidal effect (index) on Amaranthus viridis L. (Amaranthus viridis L. [2]): 5
herbicidal effects on Echinochloa crus-galli (L.) P. Beauv. var. crus-galli [3]: 4
herbicidal effects on Abutilon theophrasti medicus [4]: 5
herbicidal effects on Amaranthus viridis L. (Amaranthus viridis L. [5]): 5
Herbicidal effects index, Scirpus juncoides Roxb. var. ohwianus. T. Koyama [6]: 5
Herbicidal effects index, Monochoria vaginalis (Burm. f.) Presl var. plantaginea (Roxb.) Solms-Laub. [7]: 5
Herbicidal effects index, Echinochloa oryzicola Vasing [8]: 5

CC(=O)Cn1c(=O)c(C(=O)C2=C(O)CCCC2=O)nc2ccccc21 [Compound I-94]
herbicidal effect (index) on Abutilon theophrasti medicus [1]: 5
herbicidal effect (index) on Amaranthus viridis L. (Amaranthus viridis L. [2]): 4
herbicidal effect (index) on Echinochloa crus-galli (L.) P. Beauv. var. crus-galli [3]: 5
herbicidal effect (index) on Abutilon theophrasti medicus [4]: 5
herbicidal effect (index) on Amaranthus viridis L. (Amaranthus viridis L. [5]): 5
Herbicidal effects index, Scirpus juncoides Roxb. var. ohwianus. T. Koyama [6]: 5
Herbicidal effects index, Monochoria vaginalis (Burm. f.) Presl var. plantaginea (Roxb.) Solms-Laub. [7]: 5
Herbicidal effects index, Echinochloa oryzicola Vasing [8]: 5

O=C1CCCC(O)=C1C(=O)c1nc2ccccc2n(-c2ccc(Cl)cc2)c1=O [II-13]
herbicidal effect (index) on Abutilon theophrasti medicus [1]: 5
herbicidal effect (index) on Amaranthus viridis L. (Amaranthus viridis L. [2]): 5
herbicidal effect (index) on Echinochloa crus-galli (L.) P. Beauv. var. crus-galli [3]: 5
herbicidal effect (index) on Abutilon theophrasti medicus [4]: 5
herbicidal effect (index) on Amaranthus viridis L. (Amaranthus viridis L. [5]): 5
Herbicidal effects index, Scirpus juncoides Roxb. var. ohwianus. T. Koyama [6]: 5
Herbicidal effects index, Monochoria vaginalis (Burm. f.) Presl var. plantaginea (Roxb.) Solms-Laub. [7]: 5
Herbicidal effects index, Echinochloa oryzicola Vasing [8]: 5

O=C1CCCC(O)=C1C(=O)c1nc2ccccc2n(-c2ccc(C3CC3)cc2)c1=O [II-33]
herbicidal effect (index) on Abutilon theophrasti medicus [1]: 4
herbicidal effect (index) on Amaranthus viridis L. (Amaranthus viridis L. [2]): 5
herbicidal effects on Echinochloa crus-galli (L.) P. Beauv. var. crus-galli [3]: 5
herbicidal effects on Abutilon theophrasti medicus [4]: 5
herbicidal effects on Amaranthus viridis L. (Amaranthus viridis L. [5]): 5
Herbicidal effects index, Scirpus juncoides Roxb. var. ohwianus. T. Koyama [6]: 5
Herbicidal effects index, Monochoria vaginalis (Burm. f.) Presl var. plantaginea (Roxb.) Solms-Laub. [7]: 5
Herbicidal effects index, Echinochloa oryzicola Vasing [8]: 5

Cc1ccc(-n2c(=O)c(C(=O)C3=C(O)CCCC3=O)nc3ccccc32)cc1C [II-211]
herbicidal effect (index) on Abutilon theophrasti medicus [1]: 5
herbicidal effect (index) on Amaranthus viridis L. (Amaranthus viridis L. [2]): 5
herbicidal effects on Echinochloa crus-galli (L.) P. Beauv. var. crus-galli [3]: 5
herbicidal effects on Abutilon theophrasti medicus [4]: 5
herbicidal effects on Amaranthus viridis L. (Amaranthus viridis L. [5]): 5
Herbicidal effects index, Scirpus juncoides Roxb. var. ohwianus. T. Koyama [6]: 5
Herbicidal effects index, Monochoria vaginalis (Burm. f.) Presl var. plantaginea (Roxb.) Solms-Laub. [7]: 5
Herbicidal effects index, Echinochloa oryzicola Vasing [8]: 5

COc1c(F)cc(-n2c(=O)c(C(=O)C3=C(O)CCCC3=O)nc3ccccc32)cc1F [II-220]
herbicidal effect (index) on Abutilon theophrasti medicus [1]: 5
herbicidal effect (index) on Amaranthus viridis L. (Amaranthus viridis L. [2]): 5
herbicidal effects on Echinochloa crus-galli (L.) P. Beauv. var. crus-galli [3]: 5
herbicidal effects on Abutilon theophrasti medicus [4]: 5
herbicidal effects on Amaranthus viridis L. (Amaranthus viridis L. [5]): 5
Herbicidal effects index, Scirpus juncoides Roxb. var. ohwianus. T. Koyama [6]: 5
Herbicidal effects index, Monochoria vaginalis (Burm. f.) Presl var. plantaginea (Roxb.) Solms-Laub. [7]: 5
Herbicidal effects index, Echinochloa oryzicola Vasing [8]: 5
